Patent US8486990B2, “SirT inhibitors that bind to NAD” (Elixir Pharmaceuticals, Inc., priority 2003, dated 2013)
Entries after “also recorded” stand apart in the source; their conditions may differ.

Experiments:
Format in all cases: cell-based
HeLa cell = assay: HeLa apoptosis assay (Cell Death Detection ELISA plus kit)
Method: The following exemplary compounds were evaluated for their effect on a HeLa cell apoptosis assay using the Cell Death Detection ELISA plus kit from Roche Applied Science.

yeast sir2 = biological target: T1, yeast sir2 (Saccharomyces cerevisiae, UniProt P06700); assay: yeast silencing assay (strain SL8c, URA at the telomere, 5FOA growth); conditions: SD+0.1% 5FOA, 30° C., 18-24 hrs
T1 construct: endogenous in cells; host or cells: yeast strain SL8c (URA at the telomere)
T1 sequence (P06700 whole entry): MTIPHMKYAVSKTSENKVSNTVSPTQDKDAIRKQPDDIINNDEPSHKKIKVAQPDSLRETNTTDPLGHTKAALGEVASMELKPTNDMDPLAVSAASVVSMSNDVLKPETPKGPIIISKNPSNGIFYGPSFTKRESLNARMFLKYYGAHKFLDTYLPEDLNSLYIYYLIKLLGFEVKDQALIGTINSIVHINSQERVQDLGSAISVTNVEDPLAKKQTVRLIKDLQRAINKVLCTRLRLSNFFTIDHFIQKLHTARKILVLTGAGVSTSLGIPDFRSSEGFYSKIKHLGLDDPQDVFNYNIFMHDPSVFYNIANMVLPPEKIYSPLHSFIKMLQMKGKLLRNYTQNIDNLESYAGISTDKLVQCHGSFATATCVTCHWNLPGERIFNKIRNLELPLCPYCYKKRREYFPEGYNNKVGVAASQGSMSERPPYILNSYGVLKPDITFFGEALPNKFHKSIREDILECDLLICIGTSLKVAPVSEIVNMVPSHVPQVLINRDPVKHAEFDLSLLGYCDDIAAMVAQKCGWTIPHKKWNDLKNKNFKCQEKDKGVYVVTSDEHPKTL
Method: Strain SL8c (URA at the telomere) was used for yeast based assay to screen compounds. Cells were grown in -URA media to select de-silenced cells. The next day cells were diluted 1:20 into fresh YPD with 2% glucose then grow for 5 hrs. Cells were then diluted OD=0.01 in both SD and SD+0.1% 5FOA media. The compounds were then serially diluted into 10 ul of SD or SD+0.1% 5FOA medium. 140 ul of cells were pipetted into a 96 well plate and grown at 30° C. for 18-24 hrs.

[1] = tested on: acetylated p53 (at lysine 382) in NCI-H460 cells; assay: p53 acetylation (lysine 382) in etoposide-treated NCI-H460 cells, Western blot; conditions: for acetylation of p53 (lysine 382) by enantiomers: 6 hours, 20 micromolar etoposide, immunoprecipitation of p53
GFP-hSIRT2 isoform 1 = biological target: T2, GFP-hSIRT2 isoform 1 (Homo sapiens, UniProt Q8IXJ6); assay: acetylated tubulin staining in HeLa cells transfected with GFP-hSIRT2; conditions: 1 μM TSA, 50 μM compound
T2 sequence (Q8IXJ6 1-389): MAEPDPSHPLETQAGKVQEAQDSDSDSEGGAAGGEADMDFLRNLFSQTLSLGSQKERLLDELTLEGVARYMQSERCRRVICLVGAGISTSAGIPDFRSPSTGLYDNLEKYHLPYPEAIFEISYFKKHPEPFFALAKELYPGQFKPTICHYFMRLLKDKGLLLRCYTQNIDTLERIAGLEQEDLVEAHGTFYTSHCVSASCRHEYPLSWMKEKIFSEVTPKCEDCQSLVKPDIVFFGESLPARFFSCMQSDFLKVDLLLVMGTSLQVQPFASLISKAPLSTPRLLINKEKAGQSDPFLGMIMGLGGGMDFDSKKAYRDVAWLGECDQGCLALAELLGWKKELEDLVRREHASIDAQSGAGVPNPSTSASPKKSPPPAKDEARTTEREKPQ
Description: HeLa cells were transfected with GFP-hSIRT2 isoform 1 (green). […] The next morning cells were fixed, permeabilized, and stained for acetylated tubulin (red).

NCI-H460 cells [2] = assay: thymidine incorporation with etoposide and compound (cytostar plates); conditions: NCI-H460, 1 micromolar compound, added concurrent to, prior to, and after etoposide
Method: Thymidine incorporation was measured at 24 hours intervals.

p27 in HEK293 cells = assay: p27 protein immunoblot in serum starved HEK293 cells; conditions: HEK293, serum starved 24 hrs
[3] = tested on: acetylated lysine 382 of p53 in U20S cells; assay: p53 acetylation (lysine 382) in etoposide-treated U20S cells; conditions: 20 micromolar etoposide, 6 hours
[4] = tested on: acetylated lysine 382 of p53 in MCF7 cells; assay: p53 acetylation (lysine 382) in etoposide-treated MCF7 cells; conditions: MCF7, 20 micromolar etoposide, 6 hours
NCI-H460 cells [5] = assay: cell survival after DNA damage with etoposide; conditions: NCI-H460, varying concentrations of etoposide
Description: NCI-H460 cells were damaged with varying concentrations of etoposide in the presence or absence of SIRT1 inhibitors.

Row | SMILES | average (HeLa apoptosis, Cell Death Detection ELISA) (HeLa cell; dose 0.5 (unit not given)) | average (HeLa apoptosis, Cell Death Detection ELISA) (HeLa cell; dose 2.5 (unit not given)) | average (HeLa apoptosis, Cell Death Detection ELISA) (HeLa cell; dose 10 (unit not given)) | average (HeLa apoptosis, Cell Death Detection ELISA) (HeLa cell; dose 25 (unit not given)) | effect on yeast cell growth / silencing (yeast sir2) | acetylation of p53 (lysine 382) by enantiomers [1] | tubulin acetylation in cells expressing SIRT2 (GFP-hSIRT2 isoform 1) | synergy with etoposide on growth characteristics (thymidine incorporation) (NCI-H460 cells [2]) | serum starvation-mediated upregulation of p27 (p27 in HEK293 cells) | p53 acetylation (at lysine 382) after etoposide treatment ([1]; 20 uM etoposide, 1 uM and 10 uM equally effective, relative to DMSO) | inhibition of SIRT1 / P53 acetylation [3] | inhibition of SIRT1 / P53 acetylation [4] | p53 function measured as cell survival after DNA damage (NCI-H460 cells [5])
1 | NC(=O)C1CCCc2c1[nH]c1ccccc21 (centres unmarked) [Compound 5, 2,3,4,9-Tetrahydro-1H-carbazole-1-carboxylic acid amide] | 1.00 | 0.97 | 1.07 | 0.91 | – | – | – | – | – | – | – | – | –
2 | Oc1ccc(/C=C/c2cc(O)cc(O)c2)cc1 [Resveratol, reference compound] | 0.83 | 0.84 | 1.01 | 0.56 | – | – | – | – | – | – | – | – | –
3 | NC(=O)C1CCCc2c1[nH]c1ccc(Cl)cc21 (single isomer, unassigned) [8(−), 6-Chloro-2,3,4,9-tetrahydro-1H-carbazole-1-carboxylic acid amide] | – | – | – | – | preferentially inhibits yeast sir2 relative to enantiomer 8(+); also recorded: inhibits SIRT1 and allows for expression of URA3 which blocks growth in the presence of 5-fluorouracil | significant increase in acetylation and stabilization of p53 protein | – | – | – | – | – | – | –
4 | NC(=O)C1CCCc2c1[nH]c1ccc(Cl)cc21 (centres unmarked) [Compound 8, 6-Chloro-2,3,4,9-tetrahydro-1H-carbazole-1-carboxylic acid amide] | 1.23 | 1.85 | 2.11 | 2.27 | – | – | the tubulin is more highly acetylated indicating that the effect of SIRT2 was blocked | no synergy between etoposide and compound 8 | abrogation of serum starvation-mediated upregulation of the cell cycle inhibitor p27 | increase p53 acetylation significantly relative to DMSO alone | competent to inhibit SIRT1 in a variety of cell lines with similar effects on P53 acetylation | competent to inhibit SIRT1 in a variety of cell lines with similar effects on P53 acetylation | did not modulate p53 function significantly
5 | NC(=O)C1CCCc2c1[nH]c1ccc(Cl)cc21 (single isomer, unassigned) [8(+), 6-Chloro-2,3,4,9-tetrahydro-1H-carbazole-1-carboxylic acid amide] | – | – | – | – | no effect on cell growth | does not lead to increased acetylation of p53 | – | – | – | – | – | – | –
